# Results: article PMC6479099, “Aminoguanidines: New leads for treatment of Giardia duodenalis infection” (International Journal for Parasitology: Drugs and Drug …, 2019)
# Entries after “also recorded” stand apart in the source; their conditions may differ. Where two headings read alike, the source gives them in different places.
# How the values were obtained:
# [1] = test system: Giardia trophozoites (BAH2c2); test: Proliferation of Giardia trophozoites (resazurin, 96 h); type: cell-based, Giardia duodenalis; conditions: BAH2c2, 1000 trophozoites per well, read-out: IC50prol, Assemblage A (50% inhibition in the proliferation assay)
# Procedure: The effect of the compounds on the proliferation of Giardia trophozoites was determined following the protocol outlined above, with the following modifications. The number of trophozoites was decreased to 1000 per well and the cells were incubated in the presence of each compound for 96 h at 37 °C.
# (§1) The IC50 of each compound was determined using a resazurin reduction assay, which measures the metabolic activity of cells, using the log (inhibitor) vs. normalised response – variable slope function in Graphpad Prism. The compounds were tested against an assemblage A (BAH2c2, 24 h) and an assemblage B (BAH12, 24 h) isolate (Table 1). […] The effect of the compounds on the proliferation of Giardia trophozoites (BAH2c2) was also determined.
# [2] = test system: Giardia duodenalis BAH12, assemblage B; test: Resazurin reduction assay, assemblage B isolate; type: cell-based; conditions: BAH12, 24 h
# Procedure: (§2) G. duodenalis (BAH2c2 and BAH12 strain) was cultivated according to the method of Clark and Diamond in Keister's modified TYI-S-33 medium, supplemented with heat inactivated foetal bovine serum (Hyclone™, Thermo Fisher Scientific, Scoresby, Victoria, Australia) at 37 °C in plastic 9 mL screw-capped test tubes (nunc, Thermo Fisher Scientific, Scoresby, Victoria, Australia). Subcultures were performed once a confluent monolayer was observed, approximately 2–3 times per week ([Clark and Diamond, 2002]).
# (§3) The in-vitro compound efficacy was determined using a resazurin reduction assay as previously described ([Benere et al., 2007]). The media of confluent cultures was replaced with fresh media and the cultures were placed on ice for 40 min to detach trophozoites. Trophozoites were enumerated using a haemocytometer and 50 000 trophozoites were added to each test well of a 96 well plate. Doubling or tripling dilutions of the test compounds were added to wells beginning at 25 or 50 μM compound concentration (previously prepared in DMSO). Metronidazole and DMSO (vehicle only) were used as controls. Plates were incubated under anaerobic conditions, using anaerobic gas generating sachets, (AnaeroGen, Thermo Fisher Scientific, Scoresby, Victoria, Australia) for 24 h at 37 °C. After incubation the media was removed and replaced with an equal volume of warm PBS. Resazurin (Alamarblue, Thermo Fisher Scientific, Scoresby, Victoria, Australia) was then added at 10% of the total volume of the wells. Plates were further incubated (1.5 h) for colour development and absorbance read at 570 nm and 630 nm. The percentage resazurin reduction was then calculated using the following formula:((εoxi630 x A570) – (εoxi570 x A630))/((εred570 x C630)-([…])) x 100Where: εoxi630 = 34798, εoxi570 = 80586, A570 = absorbance at 570 nm, A630 = absorbance at 630 nm, εred570 = 155677, εred630 = 5494, C630 = absorbance of negative control well at 630 nm and C570 = absorbance of negative control well at 570 nm.
# (§4) For the resazurin reduction assay the mean and standard error of the mean were determined with each assay completed in triplicate. The IC50 was calculated using the log (inhibitor) vs. normalised response – variable slope function in Graphpad Prism. For the adherence assay mean and standard error of the mean were calculated and data analysed using an unpaired t-test, relative to untreated control.
# as §1
# [3] = test system: Giardia duodenalis BAH2c2 strain, assemblage A; test: Resazurin reduction assay, assemblage A isolate; type: cell-based; conditions: BAH2c2, 24 h; for IC50: resazurin metabolic assay, read-out: IC50, Assemblage A
# Procedure: as §2, §3, §4, §1
# Absorbance was measured (630 and 570 nm), percent reduction of resazurin calculated and data presented as a percentage of the growth control. Treatment groups are: square - metronidazole; triangle –NCL 099; diamond - robenidine; and circle - NCL 062. Error ± SEM, n = 3. Data represents a typical experiment. Note the break in the x-axis indicates a change in the scale of drug concentration.
# Giardia trophozoites = test: Morphology of stained trophozoites at 100x magnification; type: cell-based, Giardia duodenalis; conditions: at IC50, 100 x magnification
# Procedure: A second screening method, based on counting adherent trophozoites, was developed and used to validate the primary screen method, modified from earlier adherence assay protocols ([Crouch et al., 1986]). The assay was prepared in 24 well plates with plastic coverslips placed in the bottom. Trophozoites were prepared as above by placing on ice and ∼5 × 10^5 cells/mL were added to each well. Drugs prepared in DMSO were added at the required concentration, with the DMSO concentration never exceeding 1%. Assay plates were incubated for 5 h at 37 °C under anaerobic conditions, the media removed and cells adhering to the coverslips were fixed with glutaraldehyde or methanol. Once the coverslips were dry, cells were stained with a Romanowsky stain variant (Rapid stain), fixed to a glass slide and imaged at 10x or 100x magnification. Images (10x magnification) were processed with DotCount v1.2 software (http://reuter.mit.edu/, 2008–2012 ^© Martin Reuter) to count the number of cells present and data analysed using GraphPad Prism version 6.00 for Windows, GraphPad Software, La Jolla California USA, www.graphpad.com. Images (100x magnification) were assessed for obvious morphological changes.
# Fig. 4 Morphological effect of Robenidine and NCL 099 on Giardia trophozoites. Giardia trophozoites were exposed to each compound for 24 h before fixation with glutaraldehyde and staining following the Diff quik protocol. A-control cells, B – cells treated with metronidazole (IC50, 2 μM), C- robendine treated cells (IC50, 2 μM), D – NCL 099 treated cells (IC50, 3 μM), E − NCL 099 treated cells (2 x IC50).
compound,measurement,setting,value
"N=C(N/N=C/c1ccc(Cl)cc1)N/N=C/c1ccc(Cl)cc1 [Robenidine, robenidine]",IC50,[1],1200 ± 700 nM
same,"MLC, Assemblage B",[2],16.6 µM
same,IC50,"[2]; Giardia duodenalis, resazurin metabolic assay",4700 ± 600 nM
same,IC50,[3],2900 ± 2900 nM
same,"MLC (minimum lethal concentration), Assemblage A",[3]; concentration at which no metabolism of resazurin was observed,2.8 to 8.3 µM
same,IC50,"[3]; Giardia duodenalis, 24 h",2000 nM
same,Morphological effect on stained trophozoites at the IC50,Giardia trophozoites,decrease in the intensity of the membrane stain; also recorded: enlarged nuclei
